Entries after “also recorded” stand apart in the source; their conditions may differ.
Legend:
Assay type in all cases: cell-based, human
[1] = test system: 5838; assay: In vitro cellular proliferation assay ([3H]-thymidine incorporation); settings: 5838 (Ewing)
Experimental: (§1) All pediatric sarcoma and neuroblastoma cell lines were obtained from Dr. Lee Helman at NIH. All cell lines were grown in RPMI medium supplemented with Glutamax (Gibco/Invitrogen #61870-036), 10% inactivated fetal bovine serum (Gibco/Invitrogen #16140-071), 10 mM Hepes, penicillin and streptomycin.
(§2) Cells were plated at an optimized density for each cell line per well in 96-well microtiter Falcon plates, incubated overnight, and then exposed to a serial dilution of drug. After 72 hours incubation with drug at 37° C., cells were pulsed with 4 μCi/ml [6-3H] thymidine (Amersham Pharmacia Biotech, UK) for 3 hours, trypsinized, harvested onto UniFilter-96, GF/B plates (PerkinElmer, Boston, Mass.) and scintillation was measured on a TopCount NXT (Packard, Conn.). Results were expressed as an IC50, which is the drug concentration required to inhibit cell proliferation by 50% to that of untreated control cells. The mean IC50 and standard deviation (SD) from multiple tests for each cell line were calculated.

[2] = test system: CTR; assay: as above
Experimental: as §1, §2

[3] = test system: H2052; assay: as above; settings: H2052 (Melignant Pleural Mesothelioma)
Experimental: as §1, §2

[4] = test system: H211; assay: as above; settings: H211 (Melignant Pleural Mesothelioma)
Experimental: as §1, §2

[5] = test system: H2595; assay: as above; settings: H2595 (Melignant Pleural Mesothelioma)
Experimental: as §1, §2

[6] = test system: H513; assay: as above; settings: H513 (Melignant Pleural Mesothelioma)
Experimental: as §1, §2

[7] = test system: HT1080/S; assay: as above; settings: HT1080/S (Fibrosarcoma)
Experimental: as §1, §2

[8] = test system: HTB-92; assay: as above; settings: HTB-92 (Liposarcoma)
Experimental: as §1, §2

[9] = test system: IMR-32; assay: as above; settings: IMR-32 (Neuroblastoma)
Experimental: as §1, §2

[10] = test system: JD; assay: as above
Experimental: as §1, §2

[11] = test system: KAG; assay: as above; settings: KAG (Ewing)
Experimental: as §1, §2

[12] = test system: LAN-1; assay: as above; settings: LAN-1 (Neuroblastoma)
Experimental: as §1, §2

[13] = test system: ME; assay: as above; settings: ME (Rhabdomyosarcoma)
Experimental: as §1, §2

[14] = test system: RDES; assay: as above; settings: RDES (Ewing)
Experimental: as §1, §2

[15] = test system: Rh1; assay: as above; settings: Rh1 (Rhabdomyosarcoma)
Experimental: as §1, §2

[16] = test system: Rh36; assay: as above; settings: Rh36 (Rhabdomyosarcoma)
Experimental: as §1, §2

[17] = test system: Rh41; assay: as above; settings: Rh41 (Rhabdomyosarcoma)
Experimental: as §1, §2

[18] = test system: Rh4; assay: as above; settings: Rh4 (Rhabdomyosarcoma)
Experimental: as §1, §2

[19] = test system: SA-4; assay: as above; settings: SA-4 (Liposarcoma)
Experimental: as §1, §2

[20] = test system: SHSY5Y; assay: as above; settings: SHSY5Y (Neuroblastoma)
Experimental: as §1, §2

[21] = test system: SK-NAS; assay: as above
Experimental: as §1, §2

[22] = test system: SK-NSH; assay: as above; settings: SK-NSH (Neuroblastoma)
Experimental: as §1, §2

[23] = test system: SW-684; assay: as above; settings: SW-684 (Fibrosarcoma)
Experimental: as §1, §2

[24] = test system: TC71; assay: as above; settings: TC71 (Ewing)
Experimental: as §1, §2

[25] = test system: VW; assay: as above; settings: VW (Ewing)
Experimental: as §1, §2

[26] = test system: Rh36 cells; assay: Gene and protein expression profiling of cells with compound 1 treatment; settings: later time points, 36 and 72 hrs
[27] = Homo sapiens, 72 hours with drug, read-out: IC50

SMILES: Cc1cc(N2CCOCC2)cc2[nH]c(-c3c(NC[C@@H](O)c4cccc(Cl)c4)cc[nH]c3=O)nc12 [Compound 1, (S)-4-(2-(3-chlorophenyl)-2-hydroxyethylamino)-3-(4-methyl-6-morpholino-1H-benzo[d]imidazol-2-yl)-pyridin-2(1-H)-one]
- Sensitivity Classification [1]: S (“S” means sensitive)
- IC50 [1, 27]: 172 nM
- sensitivity/resistance classification in words ([2]; CTR): resistant
- Sensitivity Classification ([2]; CTR (Rhabdomyosarcoma)): R (“R” means resistant to the corresponding compounds.)
- IC50 ([2]; Homo sapiens, CTR (Rhabdomyosarcoma), 72 hours with drug, read-out: IC50): 370 nM
- Sensitivity Classification [3]: R (“R” means resistant to the corresponding compounds.)
- IC50 ([3]; Homo sapiens, NCI-H2052, 72 hours with drug, read-out: IC50): 403 nM
- Sensitivity Classification [4]: R (“R” means resistant to the corresponding compounds.)
- IC50 ([4]; Homo sapiens, NCI-H211, 72 hours with drug, read-out: IC50): 418 nM
- Sensitivity Classification [5]: R (“R” means resistant to the corresponding compounds.)
- IC50 ([5]; Homo sapiens, NCI-H2595, 72 hours with drug, read-out: IC50): 5000 nM
- Sensitivity Classification [6]: R (“R” means resistant to the corresponding compounds.)
- IC50 [6, 27]: 3120 nM
- Sensitivity Classification [7]: R (“R” means resistant to the corresponding compounds.)
- IC50 ([7]; Homo sapiens, HT-1080, 72 hours with drug, read-out: IC50): 1410 nM
- Sensitivity Classification [8]: R (“R” means resistant to the corresponding compounds.)
- IC50 [8, 27]: 584 nM
- IC50 [9, 27]: 277 nM
- Sensitivity Classification [9]: S (“S” means sensitive)
- IC50 ([10]; Homo sapiens, JD (Ewing), 72 hours with drug, read-out: IC50): 232 nM
- sensitivity/resistance classification in words ([10]; JD): resistant
- Sensitivity Classification ([10]; JD (Ewing)): S (“S” means sensitive)
- IC50 [11, 27]: 2110 nM
- Sensitivity Classification [11]: R (“R” means resistant to the corresponding compounds.)
- IC50 ([12]; Homo sapiens, LAN1, 72 hours with drug, read-out: IC50): 136 nM
- Sensitivity Classification [12]: S (“S” means sensitive)
- IC50 [13, 27]: 163 nM
- Sensitivity Classification [13]: S (“S” means sensitive)
- IC50 ([14]; Homo sapiens, RD-ES, 72 hours with drug, read-out: IC50): 123 nM
- Sensitivity Classification [14]: S (“S” means sensitive)
- IC50 ([15]; Homo sapiens, RH-1, 72 hours with drug, read-out: IC50): 135 nM
- Sensitivity Classification [15]: S (“S” means sensitive)
- IC50 [16, 27]: 1600 nM
- Sensitivity Classification [16]: R (“R” means resistant to the corresponding compounds.)
- IC50 [17, 27]: 69 nM
- Sensitivity Classification [17]: S (“S” means sensitive)
- IC50 [18, 27]: 27 nM
- Sensitivity Classification [18]: S (“S” means sensitive)
- IC50 [19, 27]: 779 nM
- Sensitivity Classification [19]: R (“R” means resistant to the corresponding compounds.)
- IC50 ([20]; Homo sapiens, SH-SY5Y, 72 hours with drug, read-out: IC50): 149 nM
- Sensitivity Classification [20]: S (“S” means sensitive)
- IC50 ([21]; Homo sapiens, SK-N-AS, SK-NAS (Neuroblastoma), 72 hours with drug, read-out: IC50): 192 nM
- sensitivity/resistance classification in words ([21]; SK-NAS): resistant
- Sensitivity Classification ([21]; SK-NAS (Neuroblastoma)): S (“S” means sensitive)
- IC50 ([22]; Homo sapiens, SK-N-SH, 72 hours with drug, read-out: IC50): 196 nM
- Sensitivity Classification [22]: S (“S” means sensitive)
- IC50 ([23]; Homo sapiens, SW684, 72 hours with drug, read-out: IC50): 5000 nM
- Sensitivity Classification [23]: R (“R” means resistant to the corresponding compounds.)
- IC50 ([24]; Homo sapiens, TC-71, 72 hours with drug, read-out: IC50): 119 nM
- Sensitivity Classification [24]: S (“S” means sensitive)
- IC50 [25, 27]: 101 nM
- Sensitivity Classification [25]: S (“S” means sensitive)
- effect of drug on gene/protein expression [26]: little to no effect; also recorded: little, to no effect

— patent US8492328B2, “Biomarkers and methods for determining sensitivity to insulin growth factor-1 receptor modulators” (Bristol-Myers Squibb Company, priority 2007, dated 2013)
